For 11 molecules, IC50 results are on record in patent publication US20130040978A1 (priority 2010, published 2013).

Broadly, the IC50 is the concentration that inhibits the measured activity by half.

The structures appear in SMILES notation. Structures can show the parent of a compound that is named as a salt.

In experiment [1] the target is T1, SSTR5 (Homo sapiens, UniProt P35346). As to the kind of experiment: Functional assay of inhibition of SSTR5 mediated cyclic AMP production in SSTR5 expressing CHO cells. The experiment is classed as cell-based, human. The note with it: forskolin (FSK) plus SS-28, read-out: cAMP IC50.
T1 sequence (P35346 whole entry): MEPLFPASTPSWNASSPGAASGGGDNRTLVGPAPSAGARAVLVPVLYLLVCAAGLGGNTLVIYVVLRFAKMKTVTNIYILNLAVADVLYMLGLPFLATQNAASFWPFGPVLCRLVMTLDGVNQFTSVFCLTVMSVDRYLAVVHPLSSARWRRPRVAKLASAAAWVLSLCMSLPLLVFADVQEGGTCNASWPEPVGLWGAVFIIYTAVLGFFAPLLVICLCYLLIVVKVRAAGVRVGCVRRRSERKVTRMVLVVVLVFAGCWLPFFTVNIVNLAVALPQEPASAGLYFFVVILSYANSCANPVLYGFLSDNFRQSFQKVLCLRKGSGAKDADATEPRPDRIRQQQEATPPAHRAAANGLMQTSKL
Experiment [2] has as its target T1, SSTR5. As to the kind of experiment: SSTR5 receptor-ligand binding assay, CHO-K1 cell membranes, 125I-SRIF radioligand. More on the design: expressed in transfected cells. The note with it: Table 4, read-out: Bnd IC50. The protocol:
The receptor-ligand binding assays of all 5 subtype of SSTRs were performed with membranes isolated from Chinese hamster ovary (CHO)-K1 cells stably expressing the cloned human somatostatin receptors in 96-well format as previous reported. (Yang et al. PNAS 95:10836-10841, (1998), Birzin et al. Anal. Biochem. 307:159-166, (2002)).
The stable cell lines for SSTR1-SSTR5 were developed by stably transfecting with DNA for all five SSTRs using Lipofectamine. Neomycin-resistant clones were selected and maintained in medium containing 400 μg/mL G418 (Rohrer et al. Science 282:737-740, (1998)). Binding assays were performed using (3-125I-Tyr11)-SRIF-14 or (3-125I-Tyrl 1)-SRIF-28 as the radioligand (used at 0.1 nM) and The Packard Unifilter assay plate. The assay buffer consisted of 50 mM TrisHCl (pH 7.8) with 1 mM EGTA, 5 mM MgCl2, leupeptin (10 μg/mL), pepstatin (10 μg/mL), bacitracin (200 μg/mL), and aprotinin (0.5 μg/mL). CHO-K1 cell membranes, radiolabeled somatostatin, and unlabeled test compounds were resuspended or diluted in this assay buffer. Unlabeled test compounds were examined over a range of concentrations from 0.01 nM to 10,000 nM. The Ki values for compounds were determined as described by Cheng and Prusoff Biochem Pharmacol. 22:3099-3108 (1973).

Take `CCOc1cc(CN2CCC3(CC2)CC(c2ccc(C(=O)O)cn2)=NO3)c(-c2ccc(F)c(F)c2F)cc1C` [Example 29, 6-{8-[(4-Ethoxy-2′,3′,4′-trifluoro-5-methylbiphenyl-2-yl)methyl]-1-oxa-2,8-diazaspiro[4.5]dec-2-en-3-yl}pyridine-3-carboxylic acid]: the values for the IC50 in experiment [1] and in experiment [2] were 5.6 nM and 0.99 nM, respectively.
As for `CCOc1ccc(-c2ccc(F)cc2F)c(CN2CCC3(CC2)CC(c2ccc(C(=O)O)cc2)=NO3)c1` [Example 4, 4-{8-[(4-Ethoxy-2′,4′-difluorobiphenyl-2-yl)methyl]-1-oxa-2,8-diazaspiro[4.5]dec-2-en-3-yl}benzoic acid], the IC50 in experiment [1] worked out at 3 nM; in experiment [2] it was 2.9 nM.
Regarding `CC(C)(C)n1cc(CN2CCC3(CC2)CC(c2ccc(C(=O)O)cc2)=NO3)c(-c2ccc(F)c(F)c2F)n1` [Example 3, 4-(8-{[1-tert-Butyl-3-(2,3,4-trifluorophenyl)-1H-pyrazol-4-yl]methyl})-1-oxa-2,8-diazaspiro[4.5]dec-2-en-3-yl)benzoic acid, TFA salt], the IC50 in experiment [1] amounted to 8.2 nM; in experiment [2], 2.8 nM.
`CC(C)(C)n1cc(CN2CCC3(CC2)CC(c2ccc(C(=O)O)cc2)=NO3)c(-c2ccc(F)c(Cl)c2)n1` [Example 24]: the results for the IC50 in experiment [1] and in experiment [2] were 1.8 nM and 2.3 nM, respectively.
As for `CCOc1cc(CN2CCC3(CC2)CC(c2ccc(C(=O)O)cc2)=NO3)ccc1Cl` [Example 12, 4-[8-(4-Chloro-3-ethoxybenzyl)-1-oxa-2,8-diazaspiro[4.5]dec-2-en-3-yl]benzoic acid], the figures for the IC50 in experiment [1] and in experiment [2] were 1.3 nM and 7.5 nM, respectively.
As for `CCOc1cc(CN2CCC3(CC2)CC(c2ccc(C(=O)O)cc2)=NO3)cc(OCC)c1OCC(F)(F)F` [Example 5, 4-{8-[3,5-Diethoxy-4-(2,2,2-trifluoroethoxy)benzyl]-1-oxa-2,8-diazaspiro[4.5]dec-2-en-3-yl}benzoic acid], the results for the IC50 in experiment [1] and in experiment [2] were 2.4 nM and 6 nM, respectively.
Consider `CC(C)(C)n1cc(CN2CCC3(CC2)CC(c2ccc(C(=O)O)cn2)=NO3)c(-c2ccc(F)c(Cl)c2)n1` [Example 27, 6-(8-{(1-tert-Butyl-3-(3-chloro-4-fluorophenyl)-1H-pyrazol-4-yl]methyl}-1-oxa-2,8-diazaspiro[4.5]dec-2-en-3-yl)pyridine-3-carboxylic acid], for which the results for the IC50 in experiment [1] and in experiment [2] were 8.8 nM and 10 nM, respectively.
On to `CCOc1cc(CN2CCC3(CC2)CC(c2ccc(C(=O)O)cc2)=NO3)c(-c2nccs2)cc1C` [Example 19, 4-{8-[5-Ethoxy-4-methyl-2-(1,3-thiazol-2-yl)benzyl]-1-oxa-2,8-diazaspiro[4.5]dec-2-en-3-yl}benzoic acid], for which the IC50 in experiment [1] came out at 0.94 nM; in experiment [2] it was 1.5 nM.
Taken in the same sequence, the figures for `CCOc1cc(CN2CCC3(CC2)CC(c2ccc(C(=O)O)cn2)=NO3)cc(OCC)c1-c1ccc(F)cc1` [Example 25, 6-{8-[(2,6-Diethoxy-4′-fluorobiphenyl-4-yl)methyl]-1-oxa-2,8-diazaspiro[4.5]dec-2-en-3-yl}pyridine-3-carboxylic acid] were 2.6 nM and 1.2 nM.
For the molecule `CCOc1cc(CN2CCC3(CC2)CC(c2ccc(C(=O)O)cc2)=NO3)ccc1-c1nccs1` [Example 18, 4-{8-[3-Ethoxy-4-(1,3-thiazol-2-yl)benzyl]-1-oxa-2,8-diazaspiro[4.5]dec-2-en-3-yl}benzoic acid], the figures for the IC50 in experiment [1] and in experiment [2] were 11 nM and 12 nM, respectively.
As for `CCOc1ccc(-c2cc(F)c(F)cc2F)c(CN2CCC3(CC2)CC(c2ccc(C(=O)O)cc2)=NO3)c1` [Example 10, 4-{8-[(4-Ethoxy-2′,4′,5′-trifluorobiphenyl-2-yl)methyl]-1-oxa-2,8-diazaspiro[4.5]dec-2-en-3-yl}benzoic acid], the IC50 amounted to 5.7 nM in experiment [1] and 1.8 nM in experiment [2].
